{
  "source": "patent US20220409560A1",
  "about": "“Pharmaceutical Compositions, Formulations And Methods For The Treatment Of Retinoblastoma” (Oxular Limited, priority 2019, published 2022)",
  "key": {"BJ cell line [1]": {"tested_on": "BJ cell line", "conditions": "BJ cell line (normal fibroblast), 72 hour incubation"}, "[2]": {"tested_on": "WERI cell line (WERI-Rb1)", "assay": "Retinoblastoma cell proliferation inhibition assay (Cell Titer Glo, 72 hour incubation)", "type": "cell-based, human"}, "Y79 cell line": {"tested_on": "Y79 cell line", "assay": "Retinoblastoma cell proliferation inhibition assay (Cell Titer Glo, 72 hour incubation)", "type": "cell-based, human"}, "[3]": {"tested_on": "Human retinoblastoma tumour cells, Y79", "assay": "Retinoblastoma in vivo model, retinoblastoma cell area on the retina by histology", "design": "species or system rabbits", "conditions": "for retinoblastoma cell areas from both H&E staining and antibody staining: culled at 5 weeks; for reduction in retinoblastoma cells in the eyes as compared to sham: p<0.01", "method": "Human retinoblastoma tumour cells, Y79 (ATCC@ HTB-18), were grown in media consisting of RPMI 1640 containing 20% FBS, L-glutamine 200 mM (100×), penicillin/streptomycin 5,000 U/ml and amphotericin B 250 μg/ml, to a target suspension density of 3×10^5 cells/flask in 20 ml of media in a T75 flask. Thirty-two eyes in 16 immunosuppressed rabbits were inoculated with 200,000 cells in 30 μl of serum free media to the posterior retinal surface by intravitreal injection. The animals were studied in 4 groups of 8 eight eyes. Two groups were administered topotecan prepared in 30 μl of sterile saline injected intravitreally through a 29 gauge needle in the posterior region of the vitreous cavity near the tumour cells. One topotecan group was administered a 10 μg dose and a second group administered a 50 μg dose. The topotecan groups were administered the active agent formulation at 2, 3 and 4 weeks after tumour cell inoculation. […] A fourth group was treated with a sham injection of 30 μl sterile saline through a 29 gauge needle in the posterior region of the vitreous near the tumour cells at 2, 3 and 4 weeks after tumour cell inoculation. All animals were culled at 5 weeks to allow processing of the retina and retinoblastoma tumour cells on the retina for histological examination. Macro photography of the flat mounted retinae recorded tumour cell survival on the retinae and then representative sections were removed for fixation and subsequent processing for histology. All samples were cut at 5 μm and stained by H&E and replicate slides stained with human mitochondrial marker antibody to positively identify the human retinoblastoma cells. Slides were then scanned using a slide scanner (Histech or Hamamatsu S360) and retinoblastoma cell area on the retina quantified using CaseViewer software.\nRepresentative histology images are shown in FIG. 4 with arrows indicating the retinoblastoma cells on the retina."}, "[4]": {"assay": "Ocular pharmacokinetic study, suprachoroidal administration of micelle formulation, tissue concentration by LCMS", "type": "in vivo, New Zealand White rabbits", "conditions": "25 μg dose, micellular formulation, rabbit", "description": "Both solutions were filter sterilized by passage through a sterile 0.2 micron nylon syringe filter into a sterile vial to produce a sterile formulation. The mixture was vortex mixed to produce a micelle suspension. […] A flexible catheter with 250 micron OD and 140 micron ID was surgically introduced into the suprachoroidal space in the anterior region of the eye at the pars plana. The catheter was advanced posteriorly toward the posterior region of the suprachoroidal space. The catheter was configured to conduct light and provided illumination of the catheter tip and shaft to determine the catheter position and configuration by trans-scleral visualization. The illuminated tip of the catheter was used to position the catheter in the posterior region of the suprachoroidal space. The illuminated shaft of the catheter was used to manipulate and position the catheter to direct the injection toward the posterior region of the space. […] The eyes were examined by slit lamp in the anterior segment and by indirect ophthalmoscopy in the posterior segment prior to euthanasia for each time point at 1, 3, 7, 14 days post administration."}, "BJ cell line [5]": {"tested_on": "BJ cell line", "assay": "cells", "conditions": "Homo sapiens, 72 h"}},
  "note": "Read-outs that look alike come from different tables or passages of the source.",
  "data": [
    {"smiles": "Cc1cc2c(C(=O)NC[C@H](C)c3ccccc3)c(O)c(O)cc2c(O)c1-c1c(C)cc2c(C(=O)NC[C@H](C)c3ccccc3)c(O)c(O)cc2c1O", "note": "[Sabutoclax]", "values": [
      {"measurement": "EC50", "setting": "BJ cell line [1]", "value": "> 3.65", "unit": "µM"},
      {"measurement": "EC50", "setting": "[2]", "value": 0.211, "unit": "µM"},
      {"measurement": "EC50", "setting": "Y79 cell line", "value": 0.316, "unit": "µM"}
    ]},
    {"smiles": "CC(C)c1ccccc1Cc1cc(C(=O)Nc2ccc(S(=O)(=O)c3ccccc3C(C)(C)C)cc2)c(O)c(O)c1O", "note": "[TW-37]", "values": [
      {"measurement": "retinoblastoma cell areas from both H&E staining and antibody staining", "setting": "[3]; 10 μg in DMSO intravitreal at 3 and 4 weeks after inoculation", "value": "lower compared to sham"},
      {"measurement": "reduction in retinoblastoma cells in the eyes as compared to sham", "setting": "[3]; 10 μg intravitreal at 3 and 4 weeks", "value": "statistically significant reduction"},
      {"measurement": "choroid concentration at 14 days", "setting": "[4]", "value": "near baseline"},
      {"measurement": "level of TW-37 in the vitreous", "setting": "[4]", "value": "relatively low levels"},
      {"measurement": "retina concentration at 14 days", "setting": "[4]", "value": "near baseline"},
      {"measurement": "time of peak concentration in the choroid", "setting": "[4]", "value": 3, "unit": "days"},
      {"measurement": "time of peak concentration in the retina", "setting": "[4]", "value": 7, "unit": "days"},
      {"measurement": "tissue exposure of TW-37 to the target retina after a single administration", "setting": "[4]", "value": 14, "unit": "days"},
      {"measurement": "EC50", "setting": "BJ cell line [1]", "value": "> 8.76", "unit": "µM"},
      {"measurement": "EC50", "setting": "[2]", "value": 0.278, "unit": "µM"},
      {"measurement": "EC50", "setting": "Y79 cell line", "value": 0.335, "unit": "µM"}
    ]},
    {"smiles": "CC[C@@]1(O)C(=O)OCc2c1cc1n(c2=O)Cc2cc3c(CN(C)C)c(O)ccc3nc2-1", "note": "[Topotecan]", "values": [
      {"measurement": "retinoblastoma cell areas from both H&E staining and antibody staining", "setting": "[3]; 10 μg intravitreal at 2, 3 and 4 weeks after inoculation", "value": "lower compared to sham"},
      {"measurement": "retinoblastoma cell areas from both H&E staining and antibody staining", "setting": "[3]; 50 μg intravitreal at 2, 3 and 4 weeks after inoculation", "value": "lower compared to sham"},
      {"measurement": "reduction in retinoblastoma cells in the eyes as compared to sham", "setting": "[3]; high dose (50 μg) intravitreal", "value": "statistically significant reduction"},
      {"measurement": "EC50", "setting": "[2]; Homo sapiens", "value": 0.039, "unit": "µM"},
      {"measurement": "EC50", "setting": "BJ cell line [5]", "value": "> 2.57", "unit": "µM"},
      {"measurement": "EC50", "setting": "Y79 cell line; Homo sapiens", "value": 0.069, "unit": "µM"}
    ]},
    {"smiles": "O=C(CCCCCCC(=O)Nc1ccccc1)NO", "note": "[Vorinostat]", "values": [
      {"measurement": "EC50", "setting": "BJ cell line [5]", "value": "> 54.4", "unit": "µM"}
    ]}
  ]
}
